Laboratory results as given in paper PMC9610943, “Truncated Pleurocidin Derivative with High Pepsin Hydrolysis Resistance to Combat Multidrug-Resistant Pathogens” (Pharmaceutics, 2022).
Where no end group is shown, it is not given here.

Experiments:
MRSA 1530 = test: microbe, parasite or virus in culture; assay type: cell-based, Staphylococcus aureus; settings: 1530
Protocol: (§1) S. aureus ATCC 29213, E. coli ATCC 25922, S. enteritidis ATCC 13076 and A. baumannii ATCC 19609 were obtained from the American Type Culture Collection (ATCC). The remaining strains used in the experiment were all preserved strains in our laboratory. All strains were cultured in nutrient broth overnight to the logarithmic phase at 37 °C prior to each experiment.
(§2) The MICs of all drugs were determined by micro-broth dilution method according to CLSI 2018 guidelines. Briefly, a single colony of the bacterial strain was transferred to 1 mL of Mueller Hilton broth (MHB) and overnight at 37 °C and then 10 μL were cultured in a new 1 mL medium for 4 to 6 h, and then the bacterial culture at the logarithmic phase was diluted to 1 × 10^6 CFUs/mL. The assay was performed by adding 100 μL of each peptide solution at various concentrations (0.25 to 128 μg/mL) and 100 μL of diluted bacterial culture to different wells of a 96-well microtiter plate (Corning, NY, USA). After incubation at 37 °C for 16 to 18 h and then read its MIC value. MIC value is defined as the lowest drug concentration without visible bacteria.

MRSA T144 [1] = test: microbe, parasite or virus in culture; assay type: cell-based, Staphylococcus aureus; settings: T144
Protocol: as §1, §2

MRSA T144 [2] = assay type: cell-based, Staphylococcus aureus
Protocol: as §2
(§3) Then, the antibacterial activity of the peptides affected by different temperatures and pH were determined according to the determination steps of MICs test.
(§4) In MHB medium, Na^+, K^+, Mg^2+ and Ca^2+ with the final concentrations of 10 mM, fetal bovine serum, plasma or DMEM medium (Hyclone, Logan, UT, USA) with the final concentrations of 10% was added, and then MIC values were measured to evaluate the effects of different cations, serum and plasma on the antibacterial activity of peptides.
(§5) The peptide was incubated with protease (pepsin, trypsin and papain) (Solarbio, Beijing, China) with a final concentration of 1 mg/mL at 37 °C for 1 h, then the mixture of peptide and protease was heated at 100 °C for 30 min, then centrifuged at 13,000× g for 30 min, and the supernatant was taken for MIC determination.

E. coli B2 = assay type: cell-based
Protocol: as §2, §3, §4, §5

E. coli G6 (blaNDM-5) = test: microbe, parasite or virus in culture; assay type: cell-based; settings: G6 (blaNDM-5)
Protocol: as §1, §2

A. baumannii ATCC 19609 = test: microbe, parasite or virus in culture; assay type: cell-based; settings: ATCC 19609
Protocol: as §1, §2

E. coli 1F28 (tet(X4)) = test: microbe, parasite or virus in culture; assay type: cell-based; settings: 1F28 (tet(X4))
Protocol: as §1, §2

E. coli ATCC 25922 = test: microbe, parasite or virus in culture; assay type: cell-based; settings: ATCC 25922
Protocol: as §1, §2

[3] = system: E. coli B2 (blaNDM-5 + mcr-1); test: microbe, parasite or virus in culture; assay type: cell-based; settings: B2 (blaNDM-5 + mcr-1)
Protocol: as §1, §2

E. coli B3-1 (tet(X4)) = test: microbe, parasite or virus in culture; assay type: cell-based; settings: B3-1 (tet(X4))
Protocol: as §1, §2

E. coli C3 (blaNDM-1) = test: microbe, parasite or virus in culture; assay type: cell-based; settings: C3 (blaNDM-1)
Protocol: as §1, §2

[4] = system: S. aureus 215 (cfr + LZD^R); test: microbe, parasite or virus in culture; assay type: cell-based; settings: S. aureus 215 (cfr + LZD^R); micro-broth dilution CLSI 2018, MHB, 37 °C, 16 to 18 h
Protocol: as §1, §2

S. aureus ATCC 29213 = test: microbe, parasite or virus in culture; assay type: cell-based; settings: ATCC 29213
Protocol: as §1, §2

P. aeruginosa PA14 = test: microbe, parasite or virus in culture; assay type: cell-based; settings: PA14
Protocol: as §1, §2

[5] = system: E. faecalis A4 (VRE, VanA); test: microbe, parasite or virus in culture; assay type: cell-based; settings: A4 (VRE, VanA)
Protocol: as §1, §2

E. coli CP131 (mcr-3) = test: microbe, parasite or virus in culture; assay type: cell-based; settings: CP131 (mcr-3)
Protocol: as §1, §2

E. coli G92 (mcr-1) = test: microbe, parasite or virus in culture; assay type: cell-based; settings: G92 (mcr-1)
Protocol: as §1, §2

S. aureus G16 (RIF^R) = test: microbe, parasite or virus in culture; assay type: cell-based; settings: S. aureus G16 (RIF^R); micro-broth dilution CLSI 2018, MHB, 37 °C, 16 to 18 h
Protocol: as §1, §2

[6] = system: P. aeruginosa (VIM + tmexCD1-torJ1); test: microbe, parasite or virus in culture; assay type: cell-based; settings: VIM + tmexCD1-torJ1
Protocol: as §1, §2

[7] = system: S. enteritidis ATCC 13076; test: microbe, parasite or virus in culture; assay type: cell-based; settings: ATCC 13076
Protocol: as §1, §2

[8] = system: P. cibarius HNCF44W (blaNDM-1+ tet(X6)); test: organism not typed; assay type: cell-based
Protocol: as §1, §2

GWKSFFKKWKHVWK [GK-2]
0.5 µg/mL: MIC in Plasma (10%) (E. coli B2; B2)
64 µg/mL: MIC after Pepsin treatment (MRSA T144 [2]; T144, 1 h)
4 µg/mL: MIC after treatment at 121 °C (MRSA T144 [2]; T144) | MIC in DMEM (10%) (MRSA T144 [2]; T144) | MIC in Plasma (10%) (MRSA T144 [2]; T144) | MIC in presence of K^+ (MRSA T144 [2]; T144) | MIC in presence of Mg^2+ (MRSA T144 [2]; T144) | MIC after treatment at 60 °C (MRSA T144 [2]; T144, 1 h) | MIC after treatment at 100 °C (MRSA T144 [2]; T144, 1 h) | MIC after treatment at pH 2 (MRSA T144 [2]; T144, 1 h, pH 2) | MIC after treatment at pH 4 (MRSA T144 [2]; T144, 1 h, pH 4) | MIC after treatment at pH 6 (MRSA T144 [2]; T144, 1 h, pH 6) | MIC after treatment at pH 8 (MRSA T144 [2]; T144, 1 h, pH 8) | MIC after treatment at pH 10 (MRSA T144 [2]; T144, 1 h, pH 10) | MIC after treatment at pH 12 (MRSA T144 [2]; T144, 1 h, pH 12) | MIC in DMEM (10%) (E. coli B2; B2) | MIC in Serum (10%) (E. coli B2; B2) | MIC after treatment at 60 °C (E. coli B2; B2, 1 h) | MIC after treatment at pH 4 (E. coli B2; B2, 1 h, pH 4) | MIC (E. coli B3-1 (tet(X4))) | MIC [4] | MIC (S. aureus ATCC 29213) | MIC [7]
2 µg/mL: MIC in presence of Na^+ (MRSA T144 [2]; T144) | MIC after treatment at 40 °C (MRSA T144 [2]; T144, 1 h) | MIC after treatment at 80 °C (MRSA T144 [2]; T144, 1 h) | MIC after treatment at 121 °C (E. coli B2; B2) | MIC in presence of K^+ (E. coli B2; B2) | MIC in presence of Na^+ (E. coli B2; B2) | MIC, Control (E. coli B2; B2) | MIC after treatment at 40 °C (E. coli B2; B2, 1 h) | MIC after treatment at 80 °C (E. coli B2; B2, 1 h) | MIC after treatment at 100 °C (E. coli B2; B2, 1 h) | MIC after treatment at pH 2 (E. coli B2; B2, 1 h, pH 2) | MIC after treatment at pH 6 (E. coli B2; B2, 1 h, pH 6) | MIC after treatment at pH 8 (E. coli B2; B2, 1 h, pH 8) | MIC after treatment at pH 10 (E. coli B2; B2, 1 h, pH 10) | MIC after treatment at pH 12 (E. coli B2; B2, 1 h, pH 12) | MIC (E. coli G6 (blaNDM-5)) | MIC [3] | MIC (E. coli C3 (blaNDM-1)) | MIC (E. coli CP131 (mcr-3)) | MIC (E. coli G92 (mcr-1))
8 µg/mL: MIC (MRSA T144 [1]) | MIC in Serum (10%) (MRSA T144 [2]; T144) | MIC, Control (MRSA T144 [2]; T144) | MIC (A. baumannii ATCC 19609) | MIC (E. coli ATCC 25922) | MIC (S. aureus G16 (RIF^R)) | MIC [8]
>128 µg/mL: MIC in presence of Ca^2+ (MRSA T144 [2]; T144) | MIC after Papain treatment (MRSA T144 [2]; T144, 1 h) | MIC after Trypsin treatment (MRSA T144 [2]; T144, 1 h) | MIC in presence of Ca^2+ (E. coli B2; B2) | MIC after Papain treatment (E. coli B2; B2, 1 h) | MIC after Trypsin treatment (E. coli B2; B2, 1 h)
32 µg/mL: MIC (MRSA 1530) | MIC in presence of Mg^2+ (E. coli B2; B2)
128 µg/mL: MIC after Pepsin treatment (E. coli B2; B2, 1 h)
16 µg/mL: MIC (E. coli 1F28 (tet(X4))) | MIC (P. aeruginosa PA14) | MIC [5] | MIC [6]
